Data taken from patent publication US20040014791A1, “Thiazolidinedione derivative and its use as antidiabetic” (priority 2000, published 2004).

Legend:
[1] = Solid state stability of the drug substance (storage, HPLC assay for final content and degradation products); type: physicochemical; conditions: 1 month, product of Example 3
Experimental: The solid state stability of the drug substance was determined by storing approximately 1.0 g of the material in a glass bottle at a) 40° C./75% Relative Humidity (RH), open exposure, for 1 month and b) at 50° C., closed, foe 1 month. The material was assayed by HPLC for final content and degradation products in both cases.

[2] = Flow properties: Hausner Ratio (bulk density vs tapped bulk density); type: physicochemical; conditions: ratio between the bulk density and the tapped bulk density; product of Example 3
Experimental: When used herein in respect of certain compounds the term “good flow properties” is suitably characterised by the said compound having a Hausner ratio of less than or equal to 1.5, especially of less than or equal to 1.25.
Flow Properties of the Fumarate
The ratio between the bulk density and the tapped bulk density (Hausner Ratio) of the Fumarate was determined using standard methods (“Pharmaceutics—The Science of Dosage Form Design”, editor M. Aulton, 1988, published by: Churchill Livingstone).

[3] = 40° C./75% Relative Humidity (RH), open exposure

SMILES: CN(CCOc1ccc(CC2SC(=O)NC2=O)cc1)c1ccccn1.O=C(O)/C=C/C(=O)O (centres unmarked) [Fumarate, 5-[4-[2-(N-methyl-N-(2-pyridyl)amino)ethoxy]benzyl]thiazolidine-2,4-dione fumarate]
- Solid state stability: HPLC assay [1, 3]: 100 % initial
- Solid state stability: degradation observed [1, 3]: No significant degradation observed
- Solid state stability: HPLC assay ([1]; 50° C., closed): 99 % initial
- Solid state stability: degradation observed ([1]; 50° C., closed): No significant degradation observed
- Hausner Ratio [2]: 1.0
